Structures are written as SMILES.

Data on two compounds can be found in patent publication US4795643A, “Medicament with a delayed release of active ingredient” (priority 1987, dated 1989).

A short description of the series: Dissolution Paddle Apparatus (U.S. Pharmacopoeia XX): rate of release of active ingredient from the capsule in water. Type of series: physicochemical. The method, then:
For this purpose, the total amount of active ingredient released (cumulative values) is determined after fixed periods of time, in particular after 1, 2, 4, 6 and 8 hours, and this amount is expressed in % by weight of the amount of active ingredient contained in the capsule.

Regarding `CC(C)Cc1ccc(C(C)C(=O)O)cc1` (stereo not shown) [ibuprofen, 2-(4-isobutylphenyl)-propionic acid], the release of ibuprofen (PEG 300-stearate (HLB=9 to 10) with Eudragit S 100 added, 2 hours) was 91.4%; the release of ibuprofen (PEG 1500-stearate (HLB=17) with Eudragit S 100 added, 8 hours) is 84.8%; the release of ibuprofen (mixture with PEG 300-stearate, 1 hour) worked out at 98.1%; the release of ibuprofen (mixture with PEG 1500-stearate, 0.25 hour) is recorded as 97%.

In the case of `COc1ccc(C2Sc3ccccc3N(CCN(C)C)C(=O)C2OC(C)=O)cc1.Cl` (stereo not shown) [diltiazem.HCl, 3-acetoxy-5-(2-dimethylaminoethyl)-2,3-dihydro-2-(4-methoxyphenyl)-1,5-benzothiazepin-4(5H)-one hydrochloride], the “release of diltiazem.HCl” value was 92.5% (absence of a polymer, 1.5 hours); 68.5% (ethylcellulose, HLB of 10.5, 6 hours); 84.5% (ethylcellulose, HLB of 11.5, 3 hours).
